Earlier results, collected in patent publication US20220265565A1, “NANOTECHNOLOGY-BASED DELIVERY SYSTEM OF BERGAMOT ESSENTIAL OIL, METHOD OF PREPARATION OF THE SYSTEM AND USES THEREOF” (priority 2019, published 2022).

Assays:
[1] = tested on: nociceptive response in the capsaicin test; conditions: for nociceptive response in the capsaicin test: intraplantar (i.pl.) administration
[2] = about 0.2% in the nonvolatile residue of BEO
[3] = tested on: PSNL-induced neuropathic pain symptoms in mice

Row | Structure (SMILES) | nociceptive response in the capsaicin test [1] | phototoxicity [2] | neuropathic pain symptoms / mechanical allodynia ([3]; neuropathic pain models, PSNL mice, i.pl. injection) | morphine-induced anti-allodynic effect ([3]; under neuropathic pain) | morphine-induced antinociception with combined injection ([1]; morphine i.p. or i.t. combined with i.pl. injection of the substance)
1 | C=CC(C)(CCC=C(C)C)OC(C)=O (stereo not drawn) [linalyl acetate] | reduced the nociceptive response |  |  |  | 
2 | COc1c2ccoc2cc2oc(=O)ccc12 [bergapten, 5-methoxypsoralen] |  | responsible for the phototoxicity of BEO |  |  | 
3 | C=CC(C)(O)CCC=C(C)C (stereo not drawn) [linalool] | reduced the nociceptive response |  | reduced partial sciatic nerve ligation (PSNL)-induced neuropathic pain symptoms | modulate morphine-induced anti-allodynic effect | markedly enhanced
